Consider 1 compound from publication PMC11526092 (2024).

The subject of the assay is h1_(TTAA)2 (DNA, hairpin) CGTTAATTAACGCCCCCGTTAATTAACG
Put plainly: SPR, steady state, two-site fit. The settings on record: Na+ 100 mM (NaCl), 1 mM EDTA; 10 mM MES pH 6.25, 0.005% P20, 25 °C; site 1 of 2; error about ±10%.

With `N=C(N)c1ccc(OCCCCCOc2ccc(C(=N)N)cc2)cc1`, the K1 was 680 nM.
